Measurements taken from paper PMC5612938, “A multiple biomarker assay for quality assessment of botanical drugs using a versatile microfluidic chip” (Scientific Reports, 2017).

Biological target: T1, Thrombin (from human plasma) (Homo sapiens, UniProt P00734)
T1 construct: Thrombin (from human plasma); purchased Sigma-Aldrich; host or cells: human plasma
Assay: on-chip thrombin inhibition assay (S-2238 hydrolysis, absorbance 405 nm)
Format: biochemical
Details: for thrombin inhibition (in words): at tested concentrations
Protocol: To enhance the performance of the on-chip assay, experimental parameters such as concentrations of enzymes and substrates, substrate reaction time, and incubation time of samples and enzymes were stepwise optimized. The activity of thrombin was determined by measuring the hydrolysis of chromogenic substrate S-2238 (HD-Phe-Pip-Arg-pNA) at 405 nm. As depicted in Fig. 2a, the absorbance increased rapidly along with the elevated concentrations of thrombin, while it reached a plateau at 0.5 U/mL. […] Moreover, it was clear from Fig. 2d that the maximum inhibitory effect of QSYQ sample (I1 of Table 1 in this assay) on thrombin was observed after 60 min of incubation. Therefore, to achieve favorable response and prevent signal saturation, optimal assay conditions for thrombin were determined to be 0.2 U/mL, 0.31 mM, 30 min and 60 min for the final concentrations of thrombin and S-2238, substrate reaction time and incubation time, respectively. […] In this assay, the concentrations of ACE and FAPGG were finally set at 0.027 U/mL and 0.72 mM, where the background value was lower and the reaction time was relatively shorter (30 min).
The optimized protocol was first applied to assess the quality of 11 batches of QSYQ intermediates (Table 1). Enzyme inhibition (in percentages) was employed as an indicator of drug quality and calculated according to the following equations: thrombin inhibition (%) = [1 − (AQSYQ/Ablank)] × 100; ACE inhibition (%) = [1 − (ΔAQSYQ/ΔAblank)] × 100; where AQSYQ and Ablank were the absorbance of the test sample and the blank sample after the enzymatic reaction (the background value was subtracted), and ΔAQSYQ and ΔAblank were the absorbance decrease between 0 min and 30 min of the samples. A scatter plot was generated to display the inhibition result of thrombin and ACE simultaneously. […] Moreover, artificial abnormal samples I6, I7 and I8, each with one abnormal (pre-extracted) herb, presented relatively lower inhibitions compared with I1.
Thrombin (from human plasma), ACE (from rabbit lung), FAPGG and captopril were purchased from Sigma-Aldrich (St. Louis, USA). S-2238 was obtained from Aglyco (Beijing, China). AEBSF-HCl was purchased from Selleckchem (Houston, USA). Trizma base (Tris) was obtained from Sangon Biotech (Shanghai, China) and dimethyl sulfoxide (DMSO) from J&K Scientific (Beijing, China). All other chemicals were purchased from Sinopharm Chemical (Shanghai, China) unless otherwise indicated. 0.2 M Phosphate buffer (PB, pH 6.5), and 50 mM Tris-HCl buffer (200 mM NaCl, pH 8.3) were prepared as assay buffers for thrombin and ACE, respectively.
MBs (10 mg/mL) were diluted 10 times in PB or Tris-HCl buffer, and 10 μL of the diluted MBs (1 mg/mL) were injected into one channel of the chip using a syringe infusion pump (Harvard Apparatus, USA) and retained by an external magnet. Then, 10 μL of thrombin or ACE solution was added and incubated with MBs for two hours at room temperature to form enzyme-MB complexes. The magnet was manually controlled to move MBs back and forth to enhance the ratio of reaction. Subsequently, MBs were washed twice in assay buffer and magnetically transferred to the other channel through the fluidic bridge, whose opening and closing was controlled by a pneumatic valve. Next, 10 μL of sample solutions of tested drug and 10 μL of enzymatic substrate were sequentially infused to the channel by the pump and incubated with the enzyme. When the enzymatic reaction was finished, the MBs were retained in the channel, and air was injected into the channel from the inlet using a syringe to push all the reacted solution to a 384-well plate. The absorbance of the solution was then monitored at 405 nm (for S-2238) or 340 nm (for FAPGG) using an Infinite F200 spectrophotometer (Tecan, Männedorf, Switzerland). Moreover, after detection, the reaction channel was washed three times by assay buffer to remove unbound constituents. […]

Row | Compound | thrombin inhibition (in words) | inhibition rate (for thrombin, maximum inhibition rate observed in the assay) [%] | IC50 (for thrombin) [µM]
1 | O=C(O)C(O)Cc1ccc(O)c(O)c1 (stereo not shown) [Danshensu] | good thrombin inhibitions | 66.9 | 
2 | O=C(/C=C/c1ccc(O)c2c1[C@H](C(=O)O[C@H](Cc1ccc(O)c(O)c1)C(=O)O)[C@@H](c1ccc(O)c(O)c1)O2)O[C@H](Cc1ccc(O)c(O)c1)C(=O)O [Salvianolic acid B] | good thrombin inhibitions |  | 81.9
